Test results taken from publication PMC7880690, “Chemical genetics and proteome-wide site mapping reveal cysteine MARylation by PARP-7 on immune-relevant protein targets” (eLife, 2021).

Biological target: T1, PARP-7 (Homo sapiens, UniProt Q7Z3E1)
T1 sequence (Q7Z3E1 1-657): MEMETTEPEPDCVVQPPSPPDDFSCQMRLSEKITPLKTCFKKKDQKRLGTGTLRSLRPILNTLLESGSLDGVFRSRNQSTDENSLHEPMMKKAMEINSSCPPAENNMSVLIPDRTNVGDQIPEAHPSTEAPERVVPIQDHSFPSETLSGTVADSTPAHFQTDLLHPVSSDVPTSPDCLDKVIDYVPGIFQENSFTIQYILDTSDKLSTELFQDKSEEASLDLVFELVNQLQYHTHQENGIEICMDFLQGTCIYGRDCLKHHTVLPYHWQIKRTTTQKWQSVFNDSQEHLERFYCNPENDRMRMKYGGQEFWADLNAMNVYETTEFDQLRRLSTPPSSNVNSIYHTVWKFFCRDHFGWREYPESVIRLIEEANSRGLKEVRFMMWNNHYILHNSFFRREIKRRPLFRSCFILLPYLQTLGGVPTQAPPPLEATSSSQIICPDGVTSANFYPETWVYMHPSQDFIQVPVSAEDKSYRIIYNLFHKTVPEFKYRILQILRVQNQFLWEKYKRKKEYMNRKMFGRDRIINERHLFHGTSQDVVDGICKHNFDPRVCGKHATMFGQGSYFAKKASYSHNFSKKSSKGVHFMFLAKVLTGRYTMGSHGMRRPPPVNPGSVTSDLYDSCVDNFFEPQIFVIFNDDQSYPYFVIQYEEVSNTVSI
Details: 1 μM, HEK 293 T cells

Structure (SMILES): N#Cc1ccc(N2CCN(C(=O)c3cc(Cc4n[nH]c(=O)c5ccccc45)ccc3F)CC2)nc1 [Phthal01, 6-(4-(2-fluoro-5-((4-oxo-3,4-dihydrophthalazin-1-yl)methyl)benzoyl)piperazin-1-yl)nicotinonitrile]
- inhibition of PARP-7-mediated trans-MARylation of PARP-13.2: completely inhibits
